Measurements taken from publication PMC7089538, “The effects of intra-stomach obestatin administration on intestinal contractility in neonatal piglets fed milk formula” (PLoS ONE, 2020).
Read-outs that look alike come from different tables or passages of the source. Marks after values point to notes of the source that are not given here. Where no end group is shown, it is not given here.

Tests used:
middle jejunum [1] = experiment: Histology: thickness of intestinal muscularis layer; format: in vivo, piglets (Polish Landrace x Pietrain); settings: O15: obestatin 15 μg/kg BW intra-stomach every 8 h, 6 days, H&E histometry, mean ± SEM
Method: Piglets' BW was recorded every morning. […] The protein concentration in the milk formula was 20%. […] Briefly, the samples were routinely embedded in paraffin and cut into 4.5 μm sections and applied to silane-treated slides. Next, the sections were immersed in xylene for dewaxing and then in descending grades of alcohol for rehydration. The segments were routinely stained using hematoxylin and eosin.

duodenum [2] = experiment: ACh-stimulated or atropine-treated contractions; format: in vivo, piglets (Polish Landrace x Pietrain); settings: 6 days, duodenum strips, atropine pretreatment (ATR^-6), mean ± SEM
middle jejunum [3] = settings: middle jejunum strips; for EFS-evoked amplitude of contraction: 6 days, mean ± SEM
in vivo = settings: male, Polish Landrace x Pietrain, pig, po, obestatin concentration in the blood plasma
duodenum [4] = settings: duodenum strips; for EFS-evoked amplitude of contraction: 6 days, mean ± SEM
[5] = O2: obestatin 2 μg/kg BW intra-stomach every 8 h, Basal, EFS 0.5 Hz
[6] = O2: obestatin 2 μg/kg BW intra-stomach every 8 h, Basal, EFS 5 Hz
[7] = O2: obestatin 2 μg/kg BW intra-stomach every 8 h, Basal, EFS 50 Hz
[8] = O2: obestatin 2 μg/kg BW intra-stomach every 8 h, TTX 10^−6 M, EFS 0.5 Hz
[9] = O2: obestatin 2 μg/kg BW intra-stomach every 8 h, TTX 10^−6 M, EFS 5 Hz
[10] = O2: obestatin 2 μg/kg BW intra-stomach every 8 h, TTX 10^−6 M, EFS 50 Hz
[11] = O10: obestatin 10 μg/kg BW intra-stomach every 8 h, Basal, EFS 0.5 Hz
[12] = O10: obestatin 10 μg/kg BW intra-stomach every 8 h, Basal, EFS 5 Hz
[13] = O10: obestatin 10 μg/kg BW intra-stomach every 8 h, Basal, EFS 50 Hz
[14] = O10: obestatin 10 μg/kg BW intra-stomach every 8 h, TTX 10^−6 M, EFS 0.5 Hz
[15] = O10: obestatin 10 μg/kg BW intra-stomach every 8 h, TTX 10^−6 M, EFS 5 Hz
[16] = O10: obestatin 10 μg/kg BW intra-stomach every 8 h, TTX 10^−6 M, EFS 50 Hz
[17] = O15: obestatin 15 μg/kg BW intra-stomach every 8 h, Basal, EFS 0.5 Hz
[18] = O15: obestatin 15 μg/kg BW intra-stomach every 8 h, Basal, EFS 5 Hz
[19] = O15: obestatin 15 μg/kg BW intra-stomach every 8 h, Basal, EFS 50 Hz
[20] = O15: obestatin 15 μg/kg BW intra-stomach every 8 h, TTX 10^−6 M, EFS 0.5 Hz
[21] = O15: obestatin 15 μg/kg BW intra-stomach every 8 h, TTX 10^−6 M, EFS 5 Hz
[22] = O15: obestatin 15 μg/kg BW intra-stomach every 8 h, TTX 10^−6 M, EFS 50 Hz
[23] = TTX 10^−6 M, responses similar to saline-treated preparations

FNAPFDVGIKLSGAQYQQHGRAL-NH2 [obestatin]
Thickness of muscularis layer (middle jejunum [1]): 66 ± 4^b μm
amplitude of atropine treated contractions (duodenum [2]; O10: obestatin 10 μg/kg BW intra-stomach every 8 h): 0.97 ± 0.1 mm
amplitude of atropine treated contractions (duodenum [2]; O15: obestatin 15 μg/kg BW intra-stomach every 8 h): 1.0 ± 0.1 mm
EFS-evoked amplitude of contraction (middle jejunum [3]; [5]): 0.53 ± 0.26^a^c mm
EFS-evoked amplitude of contraction (middle jejunum [3]; [6]): 0.70 ± 0.35^a mm
EFS-evoked amplitude of contraction (middle jejunum [3]; [7]): 1.22 ± 0.59^a mm
EFS-evoked amplitude of contraction (middle jejunum [3]; [8]): 0.17 ± 0.07 mm
EFS-evoked amplitude of contraction (middle jejunum [3]; [9]): 0.20 ± 0.08 mm
EFS-evoked amplitude of contraction (middle jejunum [3]; [10]): 0.31 ± 0.17 mm
EFS-evoked amplitude of contraction (middle jejunum [3]; [11]): 1.75 ± 0.18^a^d mm
EFS-evoked amplitude of contraction (middle jejunum [3]; [12]): 1.75 ± 0.18^a^b mm
EFS-evoked amplitude of contraction (middle jejunum [3]; [13]): 1.49 ± 0.30^a mm
EFS-evoked amplitude of contraction (middle jejunum [3]; [14]): 0.28 ± 0.10 mm
EFS-evoked amplitude of contraction (middle jejunum [3]; [15]): 0.30 ± 0.12 mm
EFS-evoked amplitude of contraction (middle jejunum [3]; [16]): 0.45 ± 0.15 mm
EFS-evoked amplitude of contraction (middle jejunum [3]; [17]): 2.47 ± 0.23^b^d mm
EFS-evoked amplitude of contraction (middle jejunum [3]; [18]): 2.74 ± 0.37^b mm
EFS-evoked amplitude of contraction (middle jejunum [3]; [19]): 3.76 ± 0.29^b mm
EFS-evoked amplitude of contraction (middle jejunum [3]; [20]): 0.46 ± 0.23 mm
EFS-evoked amplitude of contraction (middle jejunum [3]; [21]): 0.34 ± 0.11 mm
EFS-evoked amplitude of contraction (middle jejunum [3]; [22]): 0.61 ± 0.27 mm
effect of obestatin on EFS-evoked contraction following pre-incubation with TTX (middle jejunum [3]; [23]): the effects of obestatin were blocked
level at 0.5 h (in vivo; 2 ug/kg BW): 0.369 ± 0.026 ng/mL
level at 1 h (in vivo; 2 ug/kg BW): 0.37 ± 0.023 ng/mL
level at 0.5 h (in vivo; 10 ug/kg BW): 0.413 ± 0.011 ng/mL
level at 1 h (in vivo; 10 ug/kg BW): 0.475 ± 0.022 ng/mL
level at 0.5 h (in vivo; 15 ug/kg BW): 0.405 ± 0.026 ng/mL
level at 1 h (in vivo; 15 ug/kg BW): 0.45 ± 0.053 ng/mL
EFS-evoked amplitude of contraction (duodenum [4]; [5]): 2.53 ± 0.31^a mm
EFS-evoked amplitude of contraction (duodenum [4]; [6]): 2.78 ± 0.35^a mm
EFS-evoked amplitude of contraction (duodenum [4]; [7]): 2.95 ± 0.28^a^c mm
EFS-evoked amplitude of contraction (duodenum [4]; [8]): 0.48 ± 0.11 mm
EFS-evoked amplitude of contraction (duodenum [4]; [9]): 0.54 ± 0.11 mm
EFS-evoked amplitude of contraction (duodenum [4]; [10]): 0.82 ± 0.21 mm
EFS-evoked amplitude of contraction (duodenum [4]; [11]): 1.08 ± 0.26^b mm
EFS-evoked amplitude of contraction (duodenum [4]; [12]): 1.25 ± 0.32^b mm
EFS-evoked amplitude of contraction (duodenum [4]; [13]): 1.20 ± 0.29^a^d mm
EFS-evoked amplitude of contraction (duodenum [4]; [14]): 0.56 ± 0.16 mm
EFS-evoked amplitude of contraction (duodenum [4]; [15]): 0.59 ± 0.15 mm
EFS-evoked amplitude of contraction (duodenum [4]; [16]): 0.86 ± 0.22 mm
EFS-evoked amplitude of contraction (duodenum [4]; [17]): 2.34 ± 0.30^a mm
EFS-evoked amplitude of contraction (duodenum [4]; [18]): 2.74 ± 0.37^a mm
EFS-evoked amplitude of contraction (duodenum [4]; [19]): 3.38 ± 0.36^b^c mm
EFS-evoked amplitude of contraction (duodenum [4]; [20]): 0.40 ± 0.09 mm
EFS-evoked amplitude of contraction (duodenum [4]; [21]): 0.46 ± 0.01 mm
EFS-evoked amplitude of contraction (duodenum [4]; [22]): 0.77 ± 0.22 mm
effect of obestatin on EFS-evoked contraction following pre-incubation with TTX (duodenum [4]; [23]): the effects of obestatin were blocked
